Key:
Assay type in all cases: biochemical
[1] = target: T1, cathepsin B isolated from human liver (Homo sapiens, UniProt P07858); experiment: Cathepsin B kinetic fluorescence enzyme inhibition assay; conditions: selectivity ratio versus calpain I
T1 construct: cathepsin B—isolated from human liver; purchased Calbiochem 219362; host or cells: human liver (tissue isolate)
Outline: (§1)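 Kinetic fluorescence (ex 390/em 460 nm) at room temperature in 50 mM MES, 2 mM EDTA, 0.05% Brij 35, 2.5 mM L-cysteine, pH 6.0. Cathepsin B (liver, 0.25 nM) with 100 μM Z-Phe-Arg-AMC; cathepsin L (liver, 1 nM) with 2 μM Z-Phe-Arg-AMC; recombinant E. coli cathepsin S (0.5 nM) with 20 μM Z-Val-Val-Arg-AMC. Ki via Cheng-Prusoff.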

[2] = target: T2, cathepsin L isolated from human liver (Homo sapiens, UniProt P07711); experiment: Cathepsin L kinetic fluorescence enzyme inhibition assay; conditions: selectivity ratio versus calpain I
T2 construct: cathepsin L—isolated from human liver; purchased Calbiochem 219402; host or cells: human liver (tissue isolate)
Outline: as §1

[3] = target: T3, cathepsin K activated from recombinant human procathepsin K (Homo sapiens, UniProt P43235); experiment: Cathepsin K kinetic fluorescence enzyme inhibition assay; conditions: selectivity ratio versus calpain I
T3 construct: purchased Calbiochem 342001; host or cells: E. coli
T3 sequence (P43235 115-329): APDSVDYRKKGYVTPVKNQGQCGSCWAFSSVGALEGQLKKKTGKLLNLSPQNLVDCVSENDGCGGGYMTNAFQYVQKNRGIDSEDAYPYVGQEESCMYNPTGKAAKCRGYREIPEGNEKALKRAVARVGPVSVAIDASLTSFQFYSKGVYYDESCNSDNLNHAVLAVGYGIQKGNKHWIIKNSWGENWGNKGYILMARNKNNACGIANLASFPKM

[4] = target: T4, recombinant human cathepsin S (Homo sapiens, UniProt P25774); experiment: Cathepsin S kinetic fluorescence enzyme inhibition assay; conditions: selectivity ratio versus calpain I
T4 construct: purchased Calbiochem 219343; host or cells: E. coli
Outline: as §1

[5] = target: T5, calpain-I isolated from human erythrocytes (Homo sapiens, UniProt P07384); experiment: Calpain I kinetic fluorescence enzyme inhibition assay; conditions: apparent Ki from IC50 by Cheng-Prussoff; average of 2 to 4 dose-effect plots
T5 construct: calpain-I—isolated from human erythrocytes; purchased Calbiochem 208713; host or cells: human erythrocytes (tissue isolate)
T5 sequence (P07384 1-714): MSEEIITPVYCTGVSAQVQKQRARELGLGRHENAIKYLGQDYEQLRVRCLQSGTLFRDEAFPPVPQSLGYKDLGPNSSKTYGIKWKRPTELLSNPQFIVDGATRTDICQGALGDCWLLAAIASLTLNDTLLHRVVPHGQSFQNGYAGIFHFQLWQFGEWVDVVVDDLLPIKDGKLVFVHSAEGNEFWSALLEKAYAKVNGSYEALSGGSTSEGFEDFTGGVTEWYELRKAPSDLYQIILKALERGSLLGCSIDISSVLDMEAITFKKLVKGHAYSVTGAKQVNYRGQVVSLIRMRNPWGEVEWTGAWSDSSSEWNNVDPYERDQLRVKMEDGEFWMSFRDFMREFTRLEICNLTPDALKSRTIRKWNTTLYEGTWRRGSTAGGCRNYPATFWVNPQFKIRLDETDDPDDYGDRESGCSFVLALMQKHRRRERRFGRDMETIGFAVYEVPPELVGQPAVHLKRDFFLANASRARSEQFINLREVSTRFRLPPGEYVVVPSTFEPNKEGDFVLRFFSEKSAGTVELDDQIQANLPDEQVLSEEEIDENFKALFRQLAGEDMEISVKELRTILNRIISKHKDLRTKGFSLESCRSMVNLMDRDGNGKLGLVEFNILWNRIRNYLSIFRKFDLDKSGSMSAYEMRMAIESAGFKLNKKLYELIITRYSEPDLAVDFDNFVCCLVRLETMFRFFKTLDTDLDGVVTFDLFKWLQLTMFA
T5 sequence (P04632 1-268 partner): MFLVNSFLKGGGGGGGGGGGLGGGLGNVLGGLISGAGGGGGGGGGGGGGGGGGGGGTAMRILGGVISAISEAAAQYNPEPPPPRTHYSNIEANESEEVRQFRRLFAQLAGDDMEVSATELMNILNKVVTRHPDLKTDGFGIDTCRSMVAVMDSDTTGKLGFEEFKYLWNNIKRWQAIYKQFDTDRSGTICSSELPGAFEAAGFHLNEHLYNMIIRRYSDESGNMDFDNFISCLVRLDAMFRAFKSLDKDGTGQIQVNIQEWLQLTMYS

T2 sequence (P07711 114-333): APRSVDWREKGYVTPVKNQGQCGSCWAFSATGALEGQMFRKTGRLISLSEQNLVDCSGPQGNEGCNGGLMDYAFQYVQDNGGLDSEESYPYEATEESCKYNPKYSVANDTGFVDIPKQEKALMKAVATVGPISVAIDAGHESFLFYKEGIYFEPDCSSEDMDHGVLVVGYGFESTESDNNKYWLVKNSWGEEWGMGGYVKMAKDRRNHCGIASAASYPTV
T4 sequence (P25774 115-331): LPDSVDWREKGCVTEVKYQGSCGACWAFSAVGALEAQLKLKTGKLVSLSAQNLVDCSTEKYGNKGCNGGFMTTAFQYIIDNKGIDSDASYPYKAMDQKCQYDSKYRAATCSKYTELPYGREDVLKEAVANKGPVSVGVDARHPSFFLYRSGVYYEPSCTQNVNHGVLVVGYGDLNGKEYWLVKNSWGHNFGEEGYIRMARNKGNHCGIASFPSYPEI

SMILES	Sel cat. B (Ki(cathepsin B)/Ki(calpain) ratio) [1]	Sel cat. L (Ki(cathepsin L)/Ki(calpain) ratio) [2]	Sel cat. K (Ki(cathepsin K)/Ki(calpain) ratio) [3]	Sel cat. S (Ki(cathepsin S)/Ki(calpain) ratio) [4]	Ki [5] [µM]
NC(=O)C(=O)C(Cc1ccccc1)NC(=O)c1cccnc1-n1ccc(-c2cccc(C(F)(F)F)c2Cl)n1 (centres unmarked) [Example 155, N-[3-Amino-2,3-dioxo-1-(phenylmethyl)propyl]-2-{3-[2-chloro-3-(trifluoromethyl)phenyl]-1H-pyrazol-1-yl}pyridine-3-carboxamide]	++ (Ki(cathepsin B)/Ki(calpain) ratio of ≧30)	++ (Ki(cathepsin L)/Ki(calpain) ratio of ≧50)	++ (Ki(cathepsin K)/Ki(calpain) ratio of ≧30)	++ (Ki(cathepsin S)/Ki(calpain) ratio of ≧100)	0.04 to 0.1
NC(=O)C(=O)C(Cc1ccccc1)NC(=O)c1cccnc1-n1cc2c(n1)-c1cc(Cl)ccc1OC2 (centres unmarked) [Example 140, N-[3-Amino-2,3-dioxo-1-(phenylmethyl)propyl]-2-(8-chlorochromeno[4,3-c]pyrazol-2(4H)-yl)pyridine-3-carboxamide]	+ (10≦Ki(cathepsin B)/Ki(calpain)<30)	++ (Ki(cathepsin L)/Ki(calpain) ratio of ≧50)	++ (Ki(cathepsin K)/Ki(calpain) ratio of ≧30)	++ (Ki(cathepsin S)/Ki(calpain) ratio of ≧100)	≤ 0.04
COc1ccccc1-c1ccn(-c2ncccc2C(=O)NC(Cc2ccccc2)C(=O)C(N)=O)n1 (centres unmarked) [Example 90, N-[3-Amino-2,3-dioxo-1-(phenylmethyl)propyl]-2-{3-[2-(methyloxy)phenyl]-1H-pyrazol-1-yl}pyridine-3-carboxamide]	++ (Ki(cathepsin B)/Ki(calpain) ratio of ≧30)	++ (Ki(cathepsin L)/Ki(calpain) ratio of ≧50)	+ (10≦Ki(cathepsin K)/Ki(calpain)<30)	++ (Ki(cathepsin S)/Ki(calpain) ratio of ≧100)	≤ 0.04
NC(=O)C(=O)C(Cc1ccccc1)NC(=O)c1cccnc1-n1cc2c(n1)-c1ccccc1CC2 (centres unmarked) [Example 63, N-(3-Amino-1-benzyl-2,3-dioxopropyl)-2-(4,5-dihydro-2H-benzo[g]indazol-2-yl)nicotinamide]	+ (10≦Ki(cathepsin B)/Ki(calpain)<30)	++ (Ki(cathepsin L)/Ki(calpain) ratio of ≧50)	+ (10≦Ki(cathepsin K)/Ki(calpain)<30)	++ (Ki(cathepsin S)/Ki(calpain) ratio of ≧100)	≤ 0.04
NC(=O)C(=O)C(Cc1ccccc1)NC(=O)c1cccnc1-n1ccc(C23CC4CC(CC(C4)C2)C3)n1 (centres unmarked) [Example 193, N-[3-Amino-2,3-dioxo-1-(phenylmethyl)propyl]-2-(3-tricyclo[3.3.1.1^3,7]dec-1-yl-1H-pyrazol-1-yl)pyridine-3-carboxamide]	++ (Ki(cathepsin B)/Ki(calpain) ratio of ≧30)	++ (Ki(cathepsin L)/Ki(calpain) ratio of ≧50)	++ (Ki(cathepsin K)/Ki(calpain) ratio of ≧30)	++ (Ki(cathepsin S)/Ki(calpain) ratio of ≧100)	≤ 0.04
NC(=O)C(=O)C(Cc1ccccc1)NC(=O)c1cccnc1-n1ccc(-c2c(Cl)cccc2Cl)n1 (centres unmarked) [Example 95, N-[3-Amino-2,3-dioxo-1-(phenylmethyl)propyl]-2-[3-(2,6-dichlorophenyl)-1H-pyrazol-1-yl]pyridine-3-carboxamide]	++ (Ki(cathepsin B)/Ki(calpain) ratio of ≧30)	++ (Ki(cathepsin L)/Ki(calpain) ratio of ≧50)	++ (Ki(cathepsin K)/Ki(calpain) ratio of ≧30)	++ (Ki(cathepsin S)/Ki(calpain) ratio of ≧100)	≤ 0.04
NC(=O)C(=O)C(Cc1ccccc1)NC(=O)c1cccnc1-n1ccc(-c2c(F)cccc2F)n1 (centres unmarked) [Example 85, N-[3-Amino-2,3-dioxo-1-(phenylmethyl)propyl]-2-[3-(2,6-difluorophenyl)-1H-pyrazol-1-yl]pyridine-3-carboxamide]	+ (10≦Ki(cathepsin B)/Ki(calpain)<30)	++ (Ki(cathepsin L)/Ki(calpain) ratio of ≧50)	++ (Ki(cathepsin K)/Ki(calpain) ratio of ≧30)	++ (Ki(cathepsin S)/Ki(calpain) ratio of ≧100)	≤ 0.04
COc1ccc(CC(NC(=O)c2cccnc2-n2ccc(-c3cccc(F)c3Cl)n2)C(=O)C(N)=O)cc1 (centres unmarked) [Example 157, N-(3-Amino-1-{[4-(methyloxy)phenyl]methyl}-2,3-dioxopropyl)-2-[3-(2-chloro-3-fluorophenyl)-1H-pyrazol-1-yl]pyridine-3-carboxamide]	++ (Ki(cathepsin B)/Ki(calpain) ratio of ≧30)	++ (Ki(cathepsin L)/Ki(calpain) ratio of ≧50)	++ (Ki(cathepsin K)/Ki(calpain) ratio of ≧30)	++ (Ki(cathepsin S)/Ki(calpain) ratio of ≧100)	≤ 0.04
NC(=O)C(=O)C(Cc1ccccc1)NC(=O)c1cccnc1-n1ccc(-c2cccc(C(F)(F)F)c2)n1 (centres unmarked) [Example 83, N-(3-Amino-1-benzyl-2,3-dioxopropyl)-2-{3-[3-(trifluoromethyl)phenyl]-1H-pyrazol-1-yl}nicotinamide]	+ (10≦Ki(cathepsin B)/Ki(calpain)<30)	++ (Ki(cathepsin L)/Ki(calpain) ratio of ≧50)	++ (Ki(cathepsin K)/Ki(calpain) ratio of ≧30)	++ (Ki(cathepsin S)/Ki(calpain) ratio of ≧100)	≤ 0.04
COc1ccc(CC(NC(=O)c2cccnc2-n2ccc(-c3ccc4c(c3)OC(F)(F)O4)n2)C(=O)C(N)=O)cc1 (centres unmarked) [Example 137, N-(3-Amino-1-{[4-(methyloxy)phenyl]methyl}-2,3-dioxopropyl)-2-[3-(2,2-difluoro-1,3-benzodioxol-5-yl)-1H-pyrazol-1-yl]pyridine-3-carboxamide]	+ (10≦Ki(cathepsin B)/Ki(calpain)<30)	++ (Ki(cathepsin L)/Ki(calpain) ratio of ≧50)	+ (10≦Ki(cathepsin K)/Ki(calpain)<30)	++ (Ki(cathepsin S)/Ki(calpain) ratio of ≧100)	0.04 to 0.1
